Test results reported in patent publication US20110236325A1, “METHODS TO TREAT OR PREVENT A SKIN CONDITION USING A NELL1 PEPTIDE” (NellOne Therapeutics, Inc., priority 2010, published 2011).

Assays:
EFT-400 tissues [1] = assay: Sunburned cell counts in UV-irradiated EpiDerm-FT (EFT-400) skin model tissues, H&E histology; format: cell-based, human
Experimental: Packaged tissues were stored at 4° C. overnight and then re-equilibrated in EFT-400-ASY medium overnight prior to the start of experiments. The sample size was n=3 for each treatment group in the gene expression experiments; and n=6 (two independent experiments of n=3) for the sunburned cell counts.
Treated and untreated tissues were exposed to UV irradiation with 200 mJ/cm^2UVB/29.94 mW/cm^2UVA simulated solar UV light (Honle-500 solar lamp).
(§1) At the conclusion of the 24 hour post-irradiation period, EFT-400 tissues were fixed in 10% formalin for 2 hours at room temperature (two independent experiments with n=3). Formalin fixed tissues were embedded in paraffin and 6 micron slices were stained with haematoxylin and eosin (H&E).

EFT-400 tissues [2] = assay: Adverse effects of treatment on EFT-400 tissues (H&E stained histology); details: 50 μM in the basolateral medium
Experimental: as §1

EFT-400 tissues [3] = assay: Gene expression by quantitative PCR custom array in EFT-400 tissues with or without UV irradiation; details: for AVG Ct ACTB (housekeeping gene) / AVG Ct AQP3 / AVG Ct BCL2L1 / AVG Ct COL1A1 / AVG Ct COL4A2 / AVG Ct COL5A1 / AVG Ct COL6A1 / AVG Ct COL6A2 / AVG Ct COL7A1 / AVG Ct COL8A1 / AVG Ct COL11A1 / AVG Ct COL12A1 / AVG Ct COL14A1 / AVG Ct COL15A1 / AVG Ct COL16A1 / AVG Ct CYP2E1 / AVG Ct DSG1 / AVG Ct ERCC1 / AVG Ct FN1 / AVG Ct GAPDH (housekeeping gene) / AVG Ct GDF15 / AVG Ct GSTM3 / AVG Ct HSPA8 / AVG Ct IL1A / AVG Ct IL1B / AVG Ct IL8 / AVG Ct KAL1 / AVG Ct KRT16 / AVG Ct LAMA1 / AVG Ct LAMA2 / AVG Ct LAMA3 / AVG Ct LAMA5 / AVG Ct LAMB1 / AVG Ct LAMB3 / AVG Ct LAMC1 / AVG Ct MMP1 / AVG Ct MMP2 / AVG Ct MT2A / AVG Ct PCNA / AVG Ct RPL13A (housekeeping gene) / AVG Ct SIRT1 / AVG Ct TGFBI / AVG Ct THBS3 / AVG Ct TNC / AVG Ct VTN: 50 uM Genistein
Experimental: EpiDerm-FT™ (EFT-400) tissues were produced and packaged in the MatTek Corporation GMP tissue culture production laboratories following standard procedures. Packaged tissues were stored at 4° C. overnight and then re-equilibrated in EFT-400-ASY medium overnight prior to the start of experiments. The sample size was n=3 for each treatment group in the gene expression experiments; and n=6 (two independent experiments of n=3) for the sunburned cell counts.
Total RNA was isolated from the EFT-400 tissues (RNAqueous kit, Ambion) (n=3) and utilized for gene expression analysis by quantitative PCR on an SABioscience custom array containing 42 Human Extracellular Matrix (ECM) and Adhesion Molecules RT^2 Profiler™ PCR Array, stress and toxicity genes whose expression, based on MatTek data, are known to be dramatically altered by UV-protective compounds on UV damaged skin. […] Further, there were three internal control spots on the array that corresponded to human genomic DNA contamination (HGDC), positive PCR control (PPC), and reverse transcription control (RTC).

- AVG Ct CYP2E1 (EFT-400 tissues [3]; No UV): 31.05
- AVG Ct CYP2E1 (EFT-400 tissues [3]; UVB + UVA): 29.69
SMILES: O=c1c(-c2ccc(O)cc2)coc2cc(O)cc(O)c12 [Genistein, reference compound]
- sunburned cell formation (EFT-400 tissues [1]; 50 μM, 200 mJ/cm2 UVB/29.94 mW/cm2 UVA, 24 hour post irradiation): did not decrease sunburned cell formation to the same extent as 100 ng/ml NELL1
- number of sunburned cells as compared to UV-only controls (EFT-400 tissues [1]; pre-treatment 30 minutes prior to UV, continued 24 hours post-irradiation): statistically significant reduction in the number of sunburned cells
- adverse effects on the EFT-400 tissues (EFT-400 tissues [2]): did not produce any noteworthy adverse effects
- activity in producing the observed effects (sunburned cells, gene expression) (EFT-400 tissues [3]; NELL1 protein at 100 ng/ml, genistein at 50 μM): most active in producing the observed effects
- AVG Ct ACTB (housekeeping gene) (EFT-400 tissues [3]; No UV): 18.95
- AVG Ct AQP3 (EFT-400 tissues [3]; No UV): 23.75
- AVG Ct BCL2L1 (EFT-400 tissues [3]; No UV): 24.35
- AVG Ct COL1A1 (EFT-400 tissues [3]; No UV): 18.66
- AVG Ct COL4A2 (EFT-400 tissues [3]; No UV): 26.06
- AVG Ct COL5A1 (EFT-400 tissues [3]; No UV): 23.19
- AVG Ct COL6A1 (EFT-400 tissues [3]; No UV): 19.41
- AVG Ct COL6A2 (EFT-400 tissues [3]; No UV): 19.82
- AVG Ct COL7A1 (EFT-400 tissues [3]; No UV): 26.3
- AVG Ct COL8A1 (EFT-400 tissues [3]; No UV): 28.27
- AVG Ct COL11A1 (EFT-400 tissues [3]; No UV): 27.54
- AVG Ct COL12A1 (EFT-400 tissues [3]; No UV): 25.19
- AVG Ct COL14A1 (EFT-400 tissues [3]; No UV): 26.08
- AVG Ct COL15A1 (EFT-400 tissues [3]; No UV): 25.73
- AVG Ct COL16A1 (EFT-400 tissues [3]; No UV): 24.6
- AVG Ct DSG1 (EFT-400 tissues [3]; No UV): 20.31
- AVG Ct ERCC1 (EFT-400 tissues [3]; No UV): 24.94
- AVG Ct FN1 (EFT-400 tissues [3]; No UV): 21.06
- AVG Ct GAPDH (housekeeping gene) (EFT-400 tissues [3]; No UV): 17.74
- AVG Ct GDF15 (EFT-400 tissues [3]; No UV): 27.52
- AVG Ct GSTM3 (EFT-400 tissues [3]; No UV): 29.01
- AVG Ct HSPA8 (EFT-400 tissues [3]; No UV): 20.53
- AVG Ct IL1A (EFT-400 tissues [3]; No UV): 25.92
- AVG Ct IL1B (EFT-400 tissues [3]; No UV): 29.03
- AVG Ct IL8 (EFT-400 tissues [3]; No UV): 23.12
- AVG Ct KAL1 (EFT-400 tissues [3]; No UV): 31.59
- AVG Ct KRT16 (EFT-400 tissues [3]; No UV): 17.11
- AVG Ct LAMA1 (EFT-400 tissues [3]; No UV): 29.54
- AVG Ct LAMA2 (EFT-400 tissues [3]; No UV): 25.35
- AVG Ct LAMA3 (EFT-400 tissues [3]; No UV): 24.25
- AVG Ct LAMA5 (EFT-400 tissues [3]; No UV): 27.39
- AVG Ct LAMB1 (EFT-400 tissues [3]; No UV): 23.3
- AVG Ct LAMB3 (EFT-400 tissues [3]; No UV): 25.31
- AVG Ct LAMC1 (EFT-400 tissues [3]; No UV): 23.09
- AVG Ct MMP1 (EFT-400 tissues [3]; No UV): 22.22
- AVG Ct MMP2 (EFT-400 tissues [3]; No UV): 19.2
- AVG Ct MT2A (EFT-400 tissues [3]; No UV): 18.74
- AVG Ct PCNA (EFT-400 tissues [3]; No UV): 23.76
- AVG Ct RPL13A (housekeeping gene) (EFT-400 tissues [3]; No UV): 20.65
- AVG Ct SIRT1 (EFT-400 tissues [3]; No UV): 26.45
- AVG Ct TGFBI (EFT-400 tissues [3]; No UV): 22.04
- AVG Ct THBS3 (EFT-400 tissues [3]; No UV): 29.09
- AVG Ct TNC (EFT-400 tissues [3]; No UV): 22.12
- AVG Ct VTN (EFT-400 tissues [3]; No UV): 32.74
- expression of IL-1β elevated after UV exposure (EFT-400 tissues [3]; UV-irradiated): decrease in the expression
- expression of IL-8 elevated after UV exposure (EFT-400 tissues [3]; UV-irradiated): decrease in the expression
- expression of MMP-1 elevated after UV exposure (EFT-400 tissues [3]; UV-irradiated): decrease in the expression
- levels of AQP3 RNA after UV exposure (EFT-400 tissues [3]; UV-irradiated): did not have an effect on AQP3 levels
- reversing the UV-induced effects on gene expression (EFT-400 tissues [3]; UV-irradiated): most effective at reversing the UV-induced effects
- UV-elevated levels of AQP3 (EFT-400 tissues [3]; UV-irradiated, genistein): did not have the same effect
- AVG Ct ACTB (housekeeping gene) (EFT-400 tissues [3]; UVB + UVA): 18.85
- AVG Ct AQP3 (EFT-400 tissues [3]; UVB + UVA): 23.01
- AVG Ct BCL2L1 (EFT-400 tissues [3]; UVB + UVA): 23.79
- AVG Ct COL1A1 (EFT-400 tissues [3]; UVB + UVA): 18.54
- AVG Ct COL4A2 (EFT-400 tissues [3]; UVB + UVA): 21.82
- AVG Ct COL5A1 (EFT-400 tissues [3]; UVB + UVA): 23.29
- AVG Ct COL6A1 (EFT-400 tissues [3]; UVB + UVA): 19.47
- AVG Ct COL6A2 (EFT-400 tissues [3]; UVB + UVA): 19.68
- AVG Ct COL7A1 (EFT-400 tissues [3]; UVB + UVA): 24.97
- AVG Ct COL8A1 (EFT-400 tissues [3]; UVB + UVA): 27.28
- AVG Ct COL11A1 (EFT-400 tissues [3]; UVB + UVA): 27.6
- AVG Ct COL12A1 (EFT-400 tissues [3]; UVB + UVA): 24.93
- AVG Ct COL14A1 (EFT-400 tissues [3]; UVB + UVA): 25.69
- AVG Ct COL15A1 (EFT-400 tissues [3]; UVB + UVA): 25.83
- AVG Ct COL16A1 (EFT-400 tissues [3]; UVB + UVA): 23.98
- AVG Ct DSG1 (EFT-400 tissues [3]; UVB + UVA): 21.03
- AVG Ct ERCC1 (EFT-400 tissues [3]; UVB + UVA): 24.08
- AVG Ct FN1 (EFT-400 tissues [3]; UVB + UVA): 20.79
- AVG Ct GAPDH (housekeeping gene) (EFT-400 tissues [3]; UVB + UVA): 18.39
- AVG Ct GDF15 (EFT-400 tissues [3]; UVB + UVA): 21.74
- AVG Ct GSTM3 (EFT-400 tissues [3]; UVB + UVA): 28.37
- AVG Ct HSPA8 (EFT-400 tissues [3]; UVB + UVA): 20.14
- AVG Ct IL1A (EFT-400 tissues [3]; UVB + UVA): 25.87
- AVG Ct IL1B (EFT-400 tissues [3]; UVB + UVA): 28.03
- AVG Ct IL8 (EFT-400 tissues [3]; UVB + UVA): 20.61
- AVG Ct KAL1 (EFT-400 tissues [3]; UVB + UVA): 31.72
- AVG Ct KRT16 (EFT-400 tissues [3]; UVB + UVA): 17.92
- AVG Ct LAMA1 (EFT-400 tissues [3]; UVB + UVA): 28.49
- AVG Ct LAMA2 (EFT-400 tissues [3]; UVB + UVA): 25.42
- AVG Ct LAMA3 (EFT-400 tissues [3]; UVB + UVA): 24.01
- AVG Ct LAMA5 (EFT-400 tissues [3]; UVB + UVA): 27.71
- AVG Ct LAMB1 (EFT-400 tissues [3]; UVB + UVA): 22.85
- AVG Ct LAMB3 (EFT-400 tissues [3]; UVB + UVA): 24.92
- AVG Ct LAMC1 (EFT-400 tissues [3]; UVB + UVA): 22.69
- AVG Ct MMP1 (EFT-400 tissues [3]; UVB + UVA): 20.16
- AVG Ct MMP2 (EFT-400 tissues [3]; UVB + UVA): 18.5
- AVG Ct MT2A (EFT-400 tissues [3]; UVB + UVA): 16.4
- AVG Ct PCNA (EFT-400 tissues [3]; UVB + UVA): 23.21
- AVG Ct RPL13A (housekeeping gene) (EFT-400 tissues [3]; UVB + UVA): 20.68
- AVG Ct SIRT1 (EFT-400 tissues [3]; UVB + UVA): 25.31
- AVG Ct TGFBI (EFT-400 tissues [3]; UVB + UVA): 22.03
- AVG Ct THBS3 (EFT-400 tissues [3]; UVB + UVA): 28.97
- AVG Ct TNC (EFT-400 tissues [3]; UVB + UVA): 21.29
- AVG Ct VTN (EFT-400 tissues [3]; UVB + UVA): 32.61
- extent of gene expression changes in the absence of UV irradiation, compared to NELL1 (EFT-400 tissues [3]; no UV): more changes compared to NELL1
- gene expression in the absence of UV irradiation (EFT-400 tissues [3]; no UV): some decreases in gene expression
